Experimental data as given in US7229762B2, “Proteomic screening for redox state dependent protein—protein interactions” (Duke University Medical Center, priority 2003, dated 2007).

Assays:
AIF/MIP-1α interaction = target: T1, AIF/MIP-1α interaction (UniProt O95831+P10855); assay: Modified yeast two-hybrid, NO-dependent growth of AIF/MIP-1α clone; format: cell-based; conditions: 200 μM DETA-NO, 72 hrs
T1 construct: The entire open reading frame of AIF was derived from I.M.A.G.E. clones 1520292 and 25192; expressed in transfected cells; host or cells: Saccharomyces cerevisiae Δyhb1
T1 sequence (O95831 102-613): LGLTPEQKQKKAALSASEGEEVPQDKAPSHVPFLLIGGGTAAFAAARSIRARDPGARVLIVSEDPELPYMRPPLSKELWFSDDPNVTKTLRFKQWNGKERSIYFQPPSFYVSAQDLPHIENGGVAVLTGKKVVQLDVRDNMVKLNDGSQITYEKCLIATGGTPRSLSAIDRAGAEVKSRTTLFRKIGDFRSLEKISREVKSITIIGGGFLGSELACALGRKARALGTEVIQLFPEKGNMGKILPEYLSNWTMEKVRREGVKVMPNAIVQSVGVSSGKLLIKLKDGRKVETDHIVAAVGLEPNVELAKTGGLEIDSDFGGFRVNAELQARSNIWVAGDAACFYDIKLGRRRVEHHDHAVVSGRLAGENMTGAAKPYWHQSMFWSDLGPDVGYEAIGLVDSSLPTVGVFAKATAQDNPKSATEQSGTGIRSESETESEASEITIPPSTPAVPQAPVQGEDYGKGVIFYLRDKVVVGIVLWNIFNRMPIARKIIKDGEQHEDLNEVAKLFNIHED
T1 sequence (P10855 24-92): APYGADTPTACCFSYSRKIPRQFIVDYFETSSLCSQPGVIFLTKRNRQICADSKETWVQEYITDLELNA
Experimental: Yeast (Δyhb1) were transformed with Gal4 BD-AIF (Bait) and Gal4 AD-MIP-1α (Prey). (A) Robust growth of the AIF/MIP-1α clone requires NO (single asterisk, P<0.001 versus AIF/MIP-1α without NO) (n=6). […] Cells were grown in His-Trp-Leu-deficient medium at 30° C. for 72 hrs with or without 200 μM DETA-NO. (B) β-galactosidase activities in samples shown in A (single asterisk, P<0.001 vs. without NO, n=4).
To extend the generality of our findings, 2.5 million transformants were screened from our macrophage cDNA library for NO-dependent interactions, using apoptosis-inducing factor (AIF) as bait. AIF is implicated in cell death that is independent of caspase-3, and is not known to be regulated by NO (Lipton et al., 2002). […] One of these clones contained the entire cDNA sequence of the chemokine, macrophage inflammatory protein-1 alpha (MIP-1α). Since this clone contained a few extra amino acids derived from a linker sequence, the full length MIP-1α coding sequence was amplified by PCR and cloned into the pGAD 10 vector, whose NO-dependent interaction with AIF was verified.

[1] = target: T2, caspase-3/ASM interaction (Homo sapiens, UniProt P42574); assay: In vitro ASM/caspase-3 co-precipitation, ASM activity in caspase-3 IPs; format: binding; conditions: 20 μM DETA-NO 60 min, then ASM 37° C. 2 hrs
T2 sequence (P42574 29-277): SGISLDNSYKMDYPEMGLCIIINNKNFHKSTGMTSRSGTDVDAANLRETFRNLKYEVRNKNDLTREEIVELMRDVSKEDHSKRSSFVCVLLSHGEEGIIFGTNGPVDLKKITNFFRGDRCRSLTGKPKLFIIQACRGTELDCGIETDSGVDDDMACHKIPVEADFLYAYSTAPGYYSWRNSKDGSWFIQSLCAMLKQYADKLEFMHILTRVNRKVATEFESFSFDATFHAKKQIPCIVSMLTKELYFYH
T2 sequence (P17405 47-631 partner): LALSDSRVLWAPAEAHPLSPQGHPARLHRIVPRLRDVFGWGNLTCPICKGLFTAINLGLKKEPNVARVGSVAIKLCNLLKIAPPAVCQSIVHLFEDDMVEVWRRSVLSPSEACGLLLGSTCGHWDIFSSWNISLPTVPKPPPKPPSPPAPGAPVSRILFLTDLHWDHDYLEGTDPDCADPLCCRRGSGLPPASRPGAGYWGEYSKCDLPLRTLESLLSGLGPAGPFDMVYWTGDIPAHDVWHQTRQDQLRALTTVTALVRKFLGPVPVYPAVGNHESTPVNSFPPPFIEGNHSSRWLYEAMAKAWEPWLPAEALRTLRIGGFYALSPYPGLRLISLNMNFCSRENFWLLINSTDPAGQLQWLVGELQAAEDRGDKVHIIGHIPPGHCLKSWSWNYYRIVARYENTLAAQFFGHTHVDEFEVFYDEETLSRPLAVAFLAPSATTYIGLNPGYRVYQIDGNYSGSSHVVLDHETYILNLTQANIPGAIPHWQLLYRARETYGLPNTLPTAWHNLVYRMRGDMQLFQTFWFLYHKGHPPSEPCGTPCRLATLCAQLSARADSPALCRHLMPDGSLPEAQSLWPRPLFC
Experimental: ASM activity was measured essentially as described (E. Romiti et al., 2000), using BODIPY FL C5-sphingomyelin substrate (1.5 nmol) in assay buffer: 250 mM sodium acetate, pH 5.0, 10 mM EDTA. To assay Zn-stimulated ASM activity, 0.1 mM ZnCl was used instead of 10 mM EDTA. 30 μl sample was incubated with 70 μl assay buffer at 37° C. for 1–3 hours. Reactions were terminated by adding 1.0 ml heptane and 0.29 ml isopropyl alcohol. Phases were separated by adding 0.23 ml H2O. The heptane phase was washed with 0.23 ml H2O. The fluorescence of the organic phase (containing BODIPY FL-ceramide) was assayed at 505/514 nm excitation/emission wavelengths (slit width=2.5). […]
Purified caspase-3 was incubated in the presence or absence 20 μM DETA-NO for 60 min (30 nM steady state NO), followed by incubation with ASM at 37° C. for 2 hrs, and IP with caspase-3 antibody. […] The interaction of caspase-3 with ASM was measured as ASM activity in caspase-3 IP's (pH 5.0). […]
To determine the relevant target(s) of NO, ASM/caspase-3 co-precipitations were carried out following NO treatment of each partner alone. Using an ASM activity assay, the amounts of ASM that could be precipitated with a procaspase-3 antibody was assessed from co-incubates (2 hours at 37° C.) of ASM (20 pmol) and caspase-3 in limiting amounts (2.5 pmol). […]

ASM = target: T3, ASM (Homo sapiens, UniProt P17405); assay: ASM activity assay of purified ASM (BODIPY FL C5-sphingomyelin); format: biochemical; conditions: DETA-NO 50 μM–200 μM, 30 or 60 min, pH 5.0
T3 sequence (P17405 47-631): T2 sequence (P17405 47-631 partner)
Experimental: ASM activity was measured essentially as described (E. Romiti et al., 2000), using BODIPY FL C5-sphingomyelin substrate (1.5 nmol) in assay buffer: 250 mM sodium acetate, pH 5.0, 10 mM EDTA. To assay Zn-stimulated ASM activity, 0.1 mM ZnCl was used instead of 10 mM EDTA. 30 μl sample was incubated with 70 μl assay buffer at 37° C. for 1–3 hours. Reactions were terminated by adding 1.0 ml heptane and 0.29 ml isopropyl alcohol. Phases were separated by adding 0.23 ml H2O. The heptane phase was washed with 0.23 ml H2O. The fluorescence of the organic phase (containing BODIPY FL-ceramide) was assayed at 505/514 nm excitation/emission wavelengths (slit width=2.5).
Purified ASM protein (3.4 μg) was treated with DETA-NO (50 μM–200 μM for 30 or 60 min) and ASM activity was measured at pH 5.0 (n=3).

[2] = target: T4, caspase-3 interaction with iNOS / ASM (Homo sapiens, UniProt P42574); assay: Modified yeast two-hybrid, NO-dependent growth of iNOS/caspase-3 and ASM/caspase-3 clones; format: cell-based; conditions: iNOS/caspase-3 clone, presence vs absence of NO
T4 construct: expressed in transfected cells; host or cells: Saccharomyces cerevisiae CG-1945 Δyhb1
T4 sequence (P42574 1-277): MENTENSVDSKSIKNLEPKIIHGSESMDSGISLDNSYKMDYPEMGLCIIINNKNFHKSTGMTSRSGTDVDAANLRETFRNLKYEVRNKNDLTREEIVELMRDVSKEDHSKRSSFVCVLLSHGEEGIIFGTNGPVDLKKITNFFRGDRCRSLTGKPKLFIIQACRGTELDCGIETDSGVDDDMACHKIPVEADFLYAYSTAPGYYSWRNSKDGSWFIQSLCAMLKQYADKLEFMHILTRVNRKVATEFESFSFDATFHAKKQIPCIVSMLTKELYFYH
Experimental: Yeast (Δyhb1) were transformed with Gal4 BD-caspase-3 plasmid (bait) and a cDNA library (Gal4 AD prey plasmids) derived from activated (NO generating) macrophages. Screening was performed as described in the methods below. DETA-NO at less than 300 μM generates NO without inhibiting yeast growth (monitored by absorbance at 600 nm). Steady state NO concentrations are maintained at ˜100 nM–1 μM range for several days as measured with an NO electrode (not shown).
Auxotrophic selection was carried out on agar plates (15 cm in diameter) enriched in 50 mM phosphate buffer (pH 7.2; His-Trp-Leu (triple)-deficient buffered medium (TDBM)). […] Prey plasmids were isolated from positive yeast clones and then re-introduced into the bait strain to confirm bait-prey interactions. Method 2: After cells were seeded on 1.5% agar they were covered with 3% low melting point agar, which in turn was layered with culture medium. NO donors (e.g. DETA-NO; 300 μM final concentration) were added to the liquid layer every 24 hours. Colonies are grown for 4 days as described in ref 9. Method 3:
Auxotrophic selection was carried out in TDBM. Transformation with the cDNA library was followed by overnight growth in medium deficient in tryptophan and leucine. Transformants were then grown for 3 days in His-deficient medium supplemented with DETA-NO (typically 200 μM final concentration). […]

[N]=O [NO, nitric oxide]
increase in growth in the presence of NO (AIF/MIP-1α interaction): 8 fold | binding of ASM to caspase-3 pretreated with NO [1]: induces binding of ASM | effect on ASM activity (ASM): no direct effect on ASM activity | NO-dependent growth of iNOS transformant [2]: ~9 fold
